Experiments:
Format in all cases: cell-based, murine
G11 cells [1] = assay: Quantitative PCR of CACN, CELSR and MBNL RNA expression in G11 cells over the time course of differentiation; settings: time course of one to nine days
Protocol: The expression of these three genes was analyzed by Quantitative RT-PCR during a time course of one to nine days of treatment with either dimethyl-sulfoxide or retinoic acid. To verify a role in neuronal differentiation, a comprehensive transcriptional analysis by Quantitative PCR was undertaken looking at the patterns of RNA expression for the […], and MBNL genes in the G11 cells (constitutively expressing HuB) and in the parental P19 cells (FIGS. 12A, 12B, and 12C).

G11 cells [2] = assay: Induction of differentiation of HuB (Hel-N2) stably transfected P19 (G11) cells; settings: 5% DMSO, harvested after about eight days
Protocol: The cells were then plated into two 100 mm gelatin-coated tissue culture plates. Cells were harvested after an additional four days. […] Neuronal differentiation was induced by treating 5×10^5 G11 or P19 cells placed on a 60 mm petri dish with 0.5 μM RA (Sigma-Aldrich, St. Louis, Mo., Catalog # R2625). Muscle differentiation was induced by treating 5×10^5p19 cells placed on a 60 mm petri dish with 5% DMSO (Sigma-Aldrich, St. Louis, Mo., Catalog # D2650). After two days, 25% of the cells that had formed into clumps were removed, placed in new petri dishes, and supplemented with fresh medium and RA or DMSO. Following an additional two days, cell aggregates were washed once with phosphate-buffered saline (PBS) and trypsinized. The cells were then plated into two 100 mm gelatin-coated tissue culture plates. Cells were harvested after an additional four days. […] Cell extracts and immunoprecipitations were performed as described in Example 1. Monoclonal anti-gene 10 (g10) antibodies were obtained from Duke University (Durham, N.C.) as previously described in Examples 1 and 2.

G11 cells [3] = assay: Microarray of total cellular RNA of G11 cells, differentiated/undifferentiated; settings: change in amount of RNA, day 1 and day 9
Protocol: Neuronal differentiation was induced by treating 5×10^5 G11 or P19 cells placed on a 60 mm petri dish with 0.5 μM RA (Sigma-Aldrich, St. Louis, Mo., Catalog # R2625). Muscle differentiation was induced by treating 5×10^5p19 cells placed on a 60 mm petri dish with 5% DMSO (Sigma-Aldrich, St. Louis, Mo., Catalog # D2650). After two days, 25% of the cells that had formed into clumps were removed, placed in new petri dishes, and supplemented with fresh medium and RA or DMSO. Following an additional two days, cell aggregates were washed once with phosphate-buffered saline (PBS) and trypsinized. The cells were then plated into two 100 mm gelatin-coated tissue culture plates. Cells were harvested after an additional four days. […] Cell extracts and immunoprecipitations were performed as described in Example 1. Monoclonal anti-gene 10 (g10) antibodies were obtained from Duke University (Durham, N.C.) as previously described in Examples 1 and 2. Following immunoprecipitation, the associated mRNAs were identified on high density mouse 12K glass slide microarrays (Mouse cDNA microarray kit, Catalog # […], Agilent Technologies, Palo Alto, Calif.). RNA labeling and microarray analysis was performed according to the manufacturer's protocols (Agilent Technologies, Palo Alto, Calif.).

Row | Compound | expression patterns of the CACN, CELSR and MBNL genes (G11 cells [1]) | muscle differentiation (morphology and markers) (G11 cells [2]) | ΔTotal Cellular RNA, CACN (G11 cells [3]) | ΔTotal Cellular RNA, CELSR (G11 cells [3]) | ΔTotal Cellular RNA, MBNL (G11 cells [3])
1 | C[S+](C)[O-] [DMSO, dimethyl-sulfoxide] | failed to induce changes | displayed characteristic muscle cell markers and morphology |  |  | 
2 | CC1=C(/C=C/C(C)=C/C=C/C(C)=C/C(=O)O)C(C)(C)CCC1 [RA, retinoic acid] |  |  | +1.31X | −1.33X | +1.42X

From patent US8815517B2, “Methods for identifying functionally related genes and drug targets” (Ribonomics, Inc., priority 1999, dated 2014)
